Patent publication US20240115726A1, “HYDRAZONE-BASED SAPONIN DERIVATIVES” (priority 2020, published 2024)
pIC50: −log10 of the molar value.

Assays:
Human Red blood cells = experiment: Hemolysis assay; type: cell-based; conditions: for hemolytic activity, comparison in words: fresh Human Red blood cells, FIG. 5
Description: Red blood cells (RBCs) were isolated from a buffy coat using a Ficoll gradient. The obtained RBC pellet (→4-5 ml) was washed 2× with 50 ml DPBS (without Ca^2+/Mg^2+, PAN-Biotech GmbH). Cells were pelleted by centrifugation for 10 min, 800×g at RT. RBC were counted and resuspended at 500,000,000 c/ml in DPBS (without Ca^2+/Mg^2+), based on total cell count. […] For positive lysis control a 0.02% Triton-X100 solution was prepared in DPBS^+/+. Of all compound solutions 135 μl was dispensed/well in a 96 well V-bottom plate. To this 15 μl RBC suspension was added and mixed shortly (10 sec-600 rpm). The plate was incubated 30 min at RT, with gentle agitation. Afterwards the plate was spun for 10 min at 800×g to pellet the RBC and 100-120 μl supernatant was transferred to a standard 96 wp. Subsequently, the OD at 405 nm was measured on a Thermo Scientific Multiskan FC plate reader (Thermo Scientific). For quantification the background signal of ‘DPBS^+/+ only’ wells was subtracted from all other wells before the percentage of hemolysis was calculated in comparison to 0.02% Triton-X100, by dividing the background corrected signal of treated wells over the background corrected signal of the 0.02% Triton-X100 wells (×100).

HeLa cells [1] = experiment: Toxicity of saponin alone, cell viability (MTS); type: cell-based; conditions: for toxicity, comparison in words: HeLa and A431 cells, FIG. 4; for pIC50: Homo sapiens, HeLa cells, saponin alone
Description: Next, toxicity was determined. […] SO1861-EMCH (blocked): the maleimide functional group is conjugated with mercapto-ethanol.

A431 cells [2] = experiment: Endosomal escape enhancing activity: saponin titrated with fixed non-effective toxin conjugate, cell killing (MTS); conditions: for IC50: Homo sapiens, A-431, read-out: IC50 nM (Activity; +5 pM EGFdianthin)
Description: (§1) Cell viability was determined by an MTS-assay, performed according to the manufacturer's instruction (CellTiter 96® AQueous One Solution Cell Proliferation Assay, Promega). Briefly, the MTS solution was diluted 20× in DMEM without phenol red (PAN-Biotech GmbH) supplemented with 10% FBS (PAN-Biotech GmbH). The cells were washed once with 200 μL PBS per well, after which 100 μL diluted MTS solution was added per well. The plate was incubated for approximately 20-30 minutes at 37° C. […] For quantification the background signal of ‘medium only’ wells was subtracted from all other wells, before the ratio of untreated/treated cells was calculated, by dividing the background corrected signal of untreated wells over the background corrected signal of the treated wells.

A431 cells [3] = experiment: Toxicity of saponin alone, cell viability (MTS); type: cell-based; conditions: Homo sapiens, A-431
Description: Cell viability was determined by an MTS-assay, performed according to the manufacturer's instruction (CellTiter 96® AQueous One Solution Cell Proliferation Assay, Promega). Briefly, the MTS solution was diluted 20× in DMEM without phenol red (PAN-Biotech GmbH) supplemented with 10% FBS (PAN-Biotech GmbH). The cells were washed once with 200 μL PBS per well, after which 100 μL diluted MTS solution was added per well. The plate was incubated for approximately 20-30 minutes at 37° C. Subsequently, the optical density at 492 nm was measured on a Thermo Scientific Multiskan FC plate reader (Thermo Scientific). For quantification the background signal of ‘medium only’ wells was subtracted from all other wells, before the ratio of untreated/treated cells was calculated, by dividing the background corrected signal of untreated wells over the background corrected signal of the treated wells.

HeLa cells [4] = experiment: Endosomal escape enhancing activity: saponin titrated with fixed non-effective toxin conjugate, cell killing (MTS); conditions: for IC50: Homo sapiens, HeLa, read-out: IC50 nM (Activity; +5 pM EGFdianthin); for pIC50: HeLa cells
Description: as §1

For `CC(=O)OC1C(C)OC(OC2C(C)OC(OC(=O)[C@]34CCC(C)(C)CC3C3=CCC5[C@@]6(C)CC[C@H](OC7OC(C(=O)O)C(O)C(OC8OCC(O)C(O)C8O)C7OC7OC(CO)C(O)C(O)C7O)CC6[C@@](C)(/C=N/NC(=O)CCOCCOCCOCCOCCN6N=NC7c8ccccc8CN(C(=O)CCC(=O)ON8C(=O)CCC8=O)c8ccccc8C76)C[C@@]5(C)[C@]3(C)C[C@H]4O)C(OC3OC(C)C(OC4OCC(O)C(OC5OC(CO)C(O)C(O)C5O)C4O)C(O)C3O)C2O)C(O)C1OC1OCC(O)C(O)C1O` (stereo partly drawn), the pIC50 (Human Red blood cells; Homo sapiens, Erythrocyte, red blood cells, Table 3) was under 3.00, the “hemolytic activity, comparison in words” value (Human Red blood cells) was “comparable hemolytic activity” and the “toxicity, comparison in words” value (HeLa cells [1]) was “comparable with the toxicity observed with SO1861-EMCH”. It also gave a pIC50 (HeLa cells [1]) of under 4.00, an IC50 (A431 cells [2]) of 3000 nM and a pIC50 (A431 cells [2]; read-out: IC50 (activity; +10 pM Cetuximab-saporin), A431 cells, +10 pM Cetuximab-saporin) of 5.70. For the same compound, the pIC50 (A431 cells [3]) was under 4.52, the IC50 (HeLa cells [4]) was 4000 nM and the pIC50 (HeLa cells [4]; read-out: IC50 (activity; +10 pM Cetuximab-saporin), +10 pM Cetuximab-saporin) was 5.70. The pIC50 (HeLa cells [4]; read-out: IC50 (activity; +50 pM Trastuzumab-saporin), +50 pM Trastuzumab-saporin) was 5.52.

`CC(=O)OC1C(C)OC(OC2C(C)OC(OC(=O)[C@]34CCC(C)(C)CC3C3=CCC5[C@@]6(C)CC[C@H](OC7OC(C(=O)O)C(O)C(OC8OCC(O)C(O)C8O)C7OC7OC(CO)C(O)C(O)C7O)[C@@](C)(C=O)C6CC[C@@]5(C)[C@]3(C)C[C@H]4O)C(OC3OC(C)C(OC4OCC(O)C(OC5OC(CO)C(O)C(O)C5O)C4O)C(O)C3O)C2O)C(O)C1OC1OCC(O)C(O)C1O` (stereo partly drawn) [SO1861, reference compound] was tested, and the “toxicity, comparison in words” value (HeLa cells [1]) was “strongest toxicity”, the pIC50 (HeLa cells [1]) was 5.05 and the IC50 (A431 cells [2]) was 300 nM. The “endosomal escape enhancing activity, comparison in words” value (HeLa cells [4]; HeLa and A431 cells, with EGFdianthin, Cetuximab-saporin or Trastuzumab-saporin, FIG. 1-3) was “strongest activity” and the IC50 (HeLa cells [4]) was 500 nM.

For `CC(=O)OC1C(C)OC(OC2C(C)OC(OC(=O)[C@]34CCC(C)(C)CC3C3=CCC5[C@@]6(C)CC[C@H](OC7OC(C(=O)O)C(O)C(OC8OCC(O)C(O)C8O)C7OC7OC(CO)C(O)C(O)C7O)[C@@](C)(/C=N/NC(=O)CCCCCN7C(=O)C=CC7=O)C6CC[C@@]5(C)[C@]3(C)C[C@H]4O)C(OC3OC(C)C(OC4OCC(O)C(OC5OC(CO)C(O)C(O)C5O)C4O)C(O)C3O)C2O)C(O)C1OC1OCC(O)C(O)C1O` (stereo partly drawn) [SO1861-EMCH, reference compound], the “hemolytic activity, comparison in words” value (Human Red blood cells) was “comparable hemolytic activity”, the pIC50 (A431 cells [3]) was under 4.52 and the IC50 (HeLa cells [4]) was 4000 nM.
